Values joined by “and” are separate entries in the source; they are usually repeats but may differ in a detail not shown here. Equal entries are not always repeated. Where two headings read alike, the source gives them in different places.
Tests used:
[1] = test system: K562 (chronic myelogenous leukemia); experiment: MTT cell proliferation assay, K562; format: cell-based; settings: Homo sapiens, K562, 72 h of exposition, read-out: Anti-proliferative activity IC50, K562
Method: (§1) Tests to determine the effects of the synthesized compounds on cell viability and the half-maximal inhibitory concentration (IC50) were performed using the MTT assay, as described in our prior work.
(§2) The target compounds 5, 6, 8–12, 14, 15, 17–22 and 24–26 were tested for antiproliferative activity against six cancer cell lines: K562 (chronic myelogenous leukemia), HL-60 (promyelocytic leukemia), MCF-7 (breast adenocarcinoma), HepG2 (human liver cancer), A549 (lung carcinoma) and OKP-GS (renal cell carcinoma). The RPMI 1788 cells (B lymphocyte, human) were used as a control to evaluate the system toxicity of the studied compounds to normal cells. Sorafenib, nilotinib and lapatinib were utilized as reference standards for comparison.

[2] = test system: HL-60 (promyelocytic leukemia); experiment: MTT cell proliferation assay, HL-60; format: cell-based; settings: Homo sapiens, HL-60, 72 h of exposition, read-out: Anti-proliferative activity IC50, HL-60
Method: as §1, §2

[3] = test system: MCF-7 (breast adenocarcinoma); experiment: MTT cell proliferation assay, MCF-7; format: cell-based; settings: Homo sapiens, MCF7, MCF-7, 72 h of exposition, read-out: Anti-proliferative activity IC50, MCF-7
Method: as §1, §2

[4] = test system: HepG2 (human liver cancer); experiment: MTT cell proliferation assay, HepG2; format: cell-based; settings: HepG2, 72 h of exposition, read-out: Anti-proliferative activity IC50, HepG2
Method: as §1, §2

A549 (lung carcinoma) = experiment: MTT cell proliferation assay, A549; format: cell-based; settings: Homo sapiens, A549, 72 h of exposition, read-out: Anti-proliferative activity IC50, A549
Method: as §1, §2

[5] = test system: OKP-GS (renal cell carcinoma); experiment: MTT cell proliferation assay, OKP-GS; format: cell-based; settings: 72 h of exposition, read-out: Anti-proliferative activity IC50, OKP-GS
Method: as §1, §2

[6] = test system: RPMI 1788 cells (B lymphocyte, human); experiment: MTT cell proliferation assay, normal RPMI 1788 cells; format: cell-based; settings: normal human lymphoblastoid cells RPMI 1788, 72 h of exposition, read-out: Anti-proliferative activity IC50, RPMI 1788
Method: as §1, §2

[7] = test system: cancer cell lines (K562, HL-60, MCF-7, HepG2, A549, OKP-GS); experiment: MTT cell proliferation assay, statements over the whole cell line panel; format: cell-based; settings: statement over the cell line panel, studied concentration range up to 50 µM
Method: as §1, §2

EGFR = target: T1, EGFR (Homo sapiens, UniProt P00533); experiment: ADP-Glo kinase assay, EGFR; format: biochemical
T1 construct: purchased Promega

HER2 = target: T2, HER2 (Homo sapiens, UniProt P04626); experiment: ADP-Glo kinase assay, HER2; format: biochemical
T2 construct: purchased Promega
T2 sequence (P04626 23-1255): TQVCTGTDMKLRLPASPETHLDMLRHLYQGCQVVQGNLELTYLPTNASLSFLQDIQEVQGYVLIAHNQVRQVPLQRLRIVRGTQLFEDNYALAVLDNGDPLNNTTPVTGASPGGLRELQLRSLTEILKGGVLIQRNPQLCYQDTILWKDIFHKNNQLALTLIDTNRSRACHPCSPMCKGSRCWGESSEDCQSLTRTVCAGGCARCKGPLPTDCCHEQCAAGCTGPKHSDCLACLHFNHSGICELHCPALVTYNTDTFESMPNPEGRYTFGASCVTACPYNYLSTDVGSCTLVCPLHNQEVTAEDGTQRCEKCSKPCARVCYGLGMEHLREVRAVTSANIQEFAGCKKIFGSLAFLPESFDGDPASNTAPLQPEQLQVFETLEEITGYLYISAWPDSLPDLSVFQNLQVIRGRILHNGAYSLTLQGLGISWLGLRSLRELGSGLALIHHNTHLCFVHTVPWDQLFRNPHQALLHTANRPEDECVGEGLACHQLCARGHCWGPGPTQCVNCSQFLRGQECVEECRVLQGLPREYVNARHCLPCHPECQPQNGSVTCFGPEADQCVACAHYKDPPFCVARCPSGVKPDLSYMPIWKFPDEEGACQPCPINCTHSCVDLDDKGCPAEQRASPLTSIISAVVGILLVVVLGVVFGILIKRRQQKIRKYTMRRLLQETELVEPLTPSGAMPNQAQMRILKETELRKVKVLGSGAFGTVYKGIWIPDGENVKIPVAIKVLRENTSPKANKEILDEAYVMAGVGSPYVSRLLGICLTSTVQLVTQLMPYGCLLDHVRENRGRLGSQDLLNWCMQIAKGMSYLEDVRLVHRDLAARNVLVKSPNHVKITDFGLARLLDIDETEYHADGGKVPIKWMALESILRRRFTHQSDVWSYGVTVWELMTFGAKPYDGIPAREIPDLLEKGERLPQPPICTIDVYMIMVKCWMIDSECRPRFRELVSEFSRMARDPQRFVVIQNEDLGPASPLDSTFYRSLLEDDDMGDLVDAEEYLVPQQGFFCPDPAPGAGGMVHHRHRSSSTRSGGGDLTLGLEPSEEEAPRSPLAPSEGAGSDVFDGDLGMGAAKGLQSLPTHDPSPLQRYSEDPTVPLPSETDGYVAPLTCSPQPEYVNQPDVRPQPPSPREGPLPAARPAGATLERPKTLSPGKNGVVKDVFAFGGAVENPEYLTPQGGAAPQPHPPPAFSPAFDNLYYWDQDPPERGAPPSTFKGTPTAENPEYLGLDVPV
Method: (§3) The ADP-Glo kinase assay (Promega, Madison, WI, USA) was used to screen compounds 5, 8–10, 14, 17, 19 and 24 for the tyrosine kinase (Kinase Selectivity Profiling System TK-1, Promega, Madison, WI, USA) and serine/threonine kinase (Kinase Selectivity Profiling System Other/CK-1, Promega, Madison, WI, USA) inhibition effects according to the manufacturer’s technical manual. The luminescence data were analyzed as described in our prior work.
(§4) The selectivity of the potential kinase inhibitor against a specific protein kinase or a specific family of kinases was investigated using the Kinase Selectivity Profiling System TK-1, Other/CK-1 and ADP-Glo™ Kinase assay kit (Promega, Madison, WI, USA).

HER4 = target: T3, HER4 (Homo sapiens, UniProt Q15303); experiment: ADP-Glo kinase assay, HER4; format: biochemical
T3 construct: purchased Promega
Method: as §3, §4

[8] = target: T4, IGF1R (insulin-like growth factor 1 receptor) (Homo sapiens, UniProt P08069); experiment: ADP-Glo kinase assay, IGF1R; format: biochemical
T4 construct: purchased Promega
T4 sequence (P08069 31-1367): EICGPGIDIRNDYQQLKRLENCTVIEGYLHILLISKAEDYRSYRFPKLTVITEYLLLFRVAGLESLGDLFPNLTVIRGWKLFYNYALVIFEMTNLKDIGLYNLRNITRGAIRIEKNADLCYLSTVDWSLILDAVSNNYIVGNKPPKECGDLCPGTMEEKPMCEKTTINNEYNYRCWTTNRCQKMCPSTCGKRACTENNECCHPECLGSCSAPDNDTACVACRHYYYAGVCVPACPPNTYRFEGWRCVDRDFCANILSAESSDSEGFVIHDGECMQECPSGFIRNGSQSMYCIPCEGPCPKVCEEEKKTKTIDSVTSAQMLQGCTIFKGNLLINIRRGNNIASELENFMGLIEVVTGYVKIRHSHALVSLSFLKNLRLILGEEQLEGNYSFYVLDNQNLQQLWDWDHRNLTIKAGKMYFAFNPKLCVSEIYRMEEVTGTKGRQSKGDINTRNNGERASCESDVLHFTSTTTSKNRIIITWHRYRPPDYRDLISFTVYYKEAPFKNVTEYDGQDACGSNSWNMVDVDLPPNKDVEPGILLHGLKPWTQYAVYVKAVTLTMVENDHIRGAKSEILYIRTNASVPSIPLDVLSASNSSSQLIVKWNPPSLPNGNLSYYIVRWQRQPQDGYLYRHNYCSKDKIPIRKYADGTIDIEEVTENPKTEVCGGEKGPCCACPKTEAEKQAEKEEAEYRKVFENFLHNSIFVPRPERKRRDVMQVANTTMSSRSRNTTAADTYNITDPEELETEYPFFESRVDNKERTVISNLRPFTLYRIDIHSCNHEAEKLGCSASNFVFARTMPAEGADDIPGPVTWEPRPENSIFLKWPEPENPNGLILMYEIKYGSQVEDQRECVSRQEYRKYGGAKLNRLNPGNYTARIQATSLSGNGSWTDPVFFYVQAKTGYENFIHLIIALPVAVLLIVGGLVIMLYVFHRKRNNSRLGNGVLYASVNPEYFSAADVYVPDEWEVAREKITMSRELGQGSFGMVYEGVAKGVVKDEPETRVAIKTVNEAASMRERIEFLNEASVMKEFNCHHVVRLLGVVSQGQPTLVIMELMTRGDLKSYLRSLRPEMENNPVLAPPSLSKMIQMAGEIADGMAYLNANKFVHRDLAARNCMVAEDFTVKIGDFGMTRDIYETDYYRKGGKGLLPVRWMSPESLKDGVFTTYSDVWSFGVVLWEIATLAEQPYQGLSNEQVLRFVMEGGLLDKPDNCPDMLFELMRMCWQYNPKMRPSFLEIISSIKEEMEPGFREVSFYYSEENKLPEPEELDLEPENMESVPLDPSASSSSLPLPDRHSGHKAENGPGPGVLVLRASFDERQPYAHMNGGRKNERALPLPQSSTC
Method: as §3, §4

InsR (insulin receptor) = target: T5, InsR (insulin receptor) (Homo sapiens, UniProt P06213); experiment: ADP-Glo kinase assay, InsR; format: biochemical
T5 construct: purchased Promega
Method: as §3, §4

KDR (VEGFR-2) = target: T6, KDR (VEGFR-2) (Homo sapiens, UniProt P35968); experiment: ADP-Glo kinase assay, KDR; format: biochemical
T6 construct: purchased Promega

PDGFRα = target: T7, PDGFRα (Homo sapiens, UniProt P16234); experiment: ADP-Glo kinase assay, PDGFRα; format: biochemical
T7 construct: purchased Promega
T7 sequence (P16234 24-1089): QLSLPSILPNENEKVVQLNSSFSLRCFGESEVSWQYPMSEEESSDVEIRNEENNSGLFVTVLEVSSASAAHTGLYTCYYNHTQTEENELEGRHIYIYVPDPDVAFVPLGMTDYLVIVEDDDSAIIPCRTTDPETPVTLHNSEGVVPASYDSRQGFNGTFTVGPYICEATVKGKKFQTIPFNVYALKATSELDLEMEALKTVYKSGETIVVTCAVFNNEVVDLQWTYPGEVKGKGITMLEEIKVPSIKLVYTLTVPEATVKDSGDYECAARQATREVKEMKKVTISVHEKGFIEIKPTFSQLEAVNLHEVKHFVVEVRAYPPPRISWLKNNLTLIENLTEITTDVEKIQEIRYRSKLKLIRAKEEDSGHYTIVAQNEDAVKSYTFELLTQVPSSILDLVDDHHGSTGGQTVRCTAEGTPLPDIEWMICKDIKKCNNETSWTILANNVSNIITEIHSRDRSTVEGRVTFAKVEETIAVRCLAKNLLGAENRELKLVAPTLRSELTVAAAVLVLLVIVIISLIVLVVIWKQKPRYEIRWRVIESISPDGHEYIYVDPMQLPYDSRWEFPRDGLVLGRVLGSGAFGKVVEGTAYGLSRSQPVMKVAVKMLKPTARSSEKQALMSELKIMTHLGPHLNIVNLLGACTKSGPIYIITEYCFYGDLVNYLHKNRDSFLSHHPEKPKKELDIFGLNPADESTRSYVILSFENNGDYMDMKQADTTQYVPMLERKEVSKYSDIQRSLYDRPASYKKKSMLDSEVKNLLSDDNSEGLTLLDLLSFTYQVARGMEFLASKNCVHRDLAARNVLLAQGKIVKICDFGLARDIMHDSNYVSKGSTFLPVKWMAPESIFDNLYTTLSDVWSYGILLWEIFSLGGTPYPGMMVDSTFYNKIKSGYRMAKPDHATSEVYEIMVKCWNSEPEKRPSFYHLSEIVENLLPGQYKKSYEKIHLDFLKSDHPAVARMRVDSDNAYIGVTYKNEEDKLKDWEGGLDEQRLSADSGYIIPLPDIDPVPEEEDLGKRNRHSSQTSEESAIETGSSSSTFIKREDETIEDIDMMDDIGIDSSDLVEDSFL
Method: as §3, §4

PDGFRβ = target: T8, PDGFRβ (Homo sapiens, UniProt P09619); experiment: ADP-Glo kinase assay, PDGFRβ; format: biochemical
T8 construct: purchased Promega
T8 sequence (P09619 33-1106): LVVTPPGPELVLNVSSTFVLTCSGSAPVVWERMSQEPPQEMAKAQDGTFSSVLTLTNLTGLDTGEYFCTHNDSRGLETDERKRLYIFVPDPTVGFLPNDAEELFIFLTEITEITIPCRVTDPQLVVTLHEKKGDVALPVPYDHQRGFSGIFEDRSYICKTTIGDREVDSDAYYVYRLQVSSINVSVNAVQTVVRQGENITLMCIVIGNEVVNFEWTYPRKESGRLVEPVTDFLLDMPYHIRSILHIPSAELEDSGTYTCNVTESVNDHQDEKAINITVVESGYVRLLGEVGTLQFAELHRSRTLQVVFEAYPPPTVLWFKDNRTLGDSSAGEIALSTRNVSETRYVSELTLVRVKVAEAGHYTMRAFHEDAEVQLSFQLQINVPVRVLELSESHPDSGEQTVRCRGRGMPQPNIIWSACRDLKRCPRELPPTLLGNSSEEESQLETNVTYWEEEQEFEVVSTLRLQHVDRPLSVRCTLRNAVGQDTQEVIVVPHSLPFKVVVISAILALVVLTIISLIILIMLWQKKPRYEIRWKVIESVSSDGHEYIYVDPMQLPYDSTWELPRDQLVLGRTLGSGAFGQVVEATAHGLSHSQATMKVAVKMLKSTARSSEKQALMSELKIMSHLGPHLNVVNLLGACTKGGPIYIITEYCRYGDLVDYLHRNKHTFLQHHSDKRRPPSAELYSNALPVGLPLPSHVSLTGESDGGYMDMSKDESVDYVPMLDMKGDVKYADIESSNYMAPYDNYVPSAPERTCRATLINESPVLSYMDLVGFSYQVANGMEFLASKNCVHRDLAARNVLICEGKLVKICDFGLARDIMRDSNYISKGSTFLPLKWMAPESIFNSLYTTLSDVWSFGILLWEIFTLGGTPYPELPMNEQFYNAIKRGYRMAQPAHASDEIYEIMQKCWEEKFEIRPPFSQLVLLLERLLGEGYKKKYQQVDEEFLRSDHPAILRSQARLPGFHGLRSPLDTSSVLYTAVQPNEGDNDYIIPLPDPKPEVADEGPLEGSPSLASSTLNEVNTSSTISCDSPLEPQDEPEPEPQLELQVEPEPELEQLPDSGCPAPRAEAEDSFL
Method: as §3, §4

Aurora A = target: T9, Aurora A (Homo sapiens, UniProt O14965); experiment: ADP-Glo kinase assay, Aurora A; format: biochemical
T9 construct: purchased Promega
T9 sequence (O14965 1-403): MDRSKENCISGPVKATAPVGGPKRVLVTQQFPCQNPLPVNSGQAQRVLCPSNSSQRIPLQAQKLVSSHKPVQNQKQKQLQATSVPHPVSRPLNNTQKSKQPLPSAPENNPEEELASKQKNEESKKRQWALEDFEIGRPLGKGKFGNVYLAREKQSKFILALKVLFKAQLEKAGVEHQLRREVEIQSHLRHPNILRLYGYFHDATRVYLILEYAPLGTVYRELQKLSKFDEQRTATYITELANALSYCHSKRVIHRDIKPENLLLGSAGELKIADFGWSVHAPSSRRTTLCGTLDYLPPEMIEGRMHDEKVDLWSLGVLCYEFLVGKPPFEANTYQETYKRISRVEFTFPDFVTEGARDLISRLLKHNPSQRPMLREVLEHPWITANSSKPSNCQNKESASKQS
Method: as §3, §4

Aurora B = target: T10, Aurora B (Homo sapiens, UniProt Q96GD4); experiment: ADP-Glo kinase assay, Aurora B; format: biochemical
T10 construct: purchased Promega
T10 sequence (Q96GD4 whole entry): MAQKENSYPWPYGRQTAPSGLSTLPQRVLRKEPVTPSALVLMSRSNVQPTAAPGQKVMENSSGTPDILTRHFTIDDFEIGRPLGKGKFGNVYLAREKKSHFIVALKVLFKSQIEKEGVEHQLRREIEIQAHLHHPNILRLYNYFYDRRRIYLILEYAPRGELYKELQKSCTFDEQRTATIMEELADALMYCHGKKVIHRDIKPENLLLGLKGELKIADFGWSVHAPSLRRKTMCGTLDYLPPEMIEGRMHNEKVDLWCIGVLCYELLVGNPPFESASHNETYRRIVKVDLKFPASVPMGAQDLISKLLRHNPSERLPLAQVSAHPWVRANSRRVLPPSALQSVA
Method: as §3, §4

K562 cells [9] = experiment: Cell cycle analysis (propidium iodide, flow cytometry); format: cell-based; settings: 48 h
Method: Tumor cells were seeded on a 6-well plate at a density of 400,000 per well for K562. Test compounds 5, 14 and 15 were added at concentrations of 1, 5 and 10 μM in duplicate for 48 h. The methodology and analysis of the obtained data were performed as described in our prior work.
As shown above, compounds 5, 14 and 15 had significant antiproliferative activities, which is why their influences on the cell cycle and apoptosis level were determined, with the aim of understanding whether these effects are cytostatic or cytotoxic. In the cell cycle experiments, K562 cells were used. […] For the determination of changes in the distribution of cells in the phases of the cell cycle, the widely employed method of staining the cells with propidium iodide was used.

K562 cells [10] = experiment: Annexin V-FITC/PI apoptosis assay; format: cell-based; settings: 48 h
Method: K562 tumor cells were plated on a 6-well plate at a density of 400,000 per well. Test compounds 5, 14 and 15 were added at concentrations of 1, 5 and 10 μM in duplicate for 48 h. The methodology and analysis of the obtained data were performed as described in our prior work.
The effects of compounds 5, 14 and 15 on cell apoptosis were examined using the Annexin V-FITC Kit (Beckman Coulter, Brea, CA, USA) according to the protocols provided. The Annexin V-FITC Kit is an apoptosis detection kit based on the binding properties of annexin V to phosphatidylserine (PS) and on the DNA intercalating capability of propidium iodide (PI). K562 cells were treated with compound 5, 14 and 15 at 1, 5 and 10 μM for 48 h, after which annexin V/PI binding was measured by flow cytometry.

K562 cell line = experiment: ROS determination (DCFH-DA, flow cytometry); format: cell-based; settings: 48 h
Method: The redox status was assessed using the K562 cell line. […] Then, the cells were washed to remove the 2′,7′-dichlorodihydrofluorescein diacetate by centrifugation at 1000 rpm for 5 min. The measurements were conducted using a Cytomics FC500 Beckman Coulter flow cytometer (FL1 channel for DCF).

| Structure (SMILES) | IC50 [1] [µM] | IC50 [2] [µM] | IC50 [3] [µM] | IC50 ([4]; Homo sapiens, HepG2, 72 h) [µM] | IC50 (A549 (lung carcinoma)) [µM] | IC50 [5] [µM] | IC50 [6] [µM] | melting point [°C] | inhibition at 10 µM (EGFR) [%] | inhibition at 10 µM (HER2) [%] | inhibition at 10 µM (HER4) [%] | inhibition at 10 µM [8] [%] | inhibition at 10 µM (InsR (insulin receptor)) [%] | inhibition at 10 µM (KDR (VEGFR-2)) [%] | inhibition at 10 µM (PDGFRα) [%] | inhibition at 10 µM (PDGFRβ) [%] | inhibition at 10 µM (Aurora A) [%] | inhibition at 10 µM (Aurora B) [%] | Apoptosis, % (cell cycle analysis) (K562 cells [9]; K562, 1 µM) [%] | G1, % (K562 cells [9]; K562, 1 µM) [%] | other results |
| --- | --- | --- | --- | --- | --- | --- | --- | --- | --- | --- | --- | --- | --- | --- | --- | --- | --- | --- | --- | --- | --- |
| Cc1cn(-c2cc(NC(=O)c3cccc(C(=O)Nc4cc([N+](=O)[O-])ccc4C)c3)cc(C(F)(F)F)c2)cn1 [Compound 12, N1-(3-(4-methyl-1H-imidazol-1-yl)-5-(trifluoromethyl)phenyl)-N3-(2-methyl-5-nitrophenyl)isophthalamide] | > 50 | > 50 | > 50 | > 50 | > 50 | 27.5 ± 2.58 | 2.36 ± 1.13 | 290 to 292 |  |  |  |  |  |  |  |  |  |  |  |  | Antiproliferative activity (IC50) over the studied cell cultures [7]: lack of sensitivity of the cancer cells in the studied concentration range |
| Cc1cn(-c2cc(NC(=O)c3cccc(C(=O)N4CCN(C(=O)c5ccccc5F)CC4)c3)cc(C(F)(F)F)c2)cn1 [Compound 14, 3-(4-(2-Fluorobenzoyl)piperazine-1-carbonyl)-N-(3-(4-methyl-1H-imidazol-1-yl)-5-(trifluoromethyl)phenyl)benzamide] | 7.71 ± 2.84 | 32.5 ± 1.5 | 27.3 ± 0.16 | 44.1 ± 4.19 | > 50 | > 50 | 26.6 ± 2.31 | 135 to 138 | 21 | 14 | 0 | 0 | 0 | 26 | 24 | 23 | 0 | 7 | 14.28 | 32.65 | G2/M, % (K562 cells [9]; K562, 1 µM): 46.95%; S, % (K562 cells [9]; K562, 1 µM): 20.41%; Apoptosis, % (cell cycle analysis) (K562 cells [9]; K562, 5 µM): 25.10%; G1, % (K562 cells [9]; K562, 5 µM): 27.58%; G2/M, % (K562 cells [9]; K562, 5 µM): 55.16%; S, % (K562 cells [9]; K562, 5 µM): 17.25%; Apoptosis, % (cell cycle analysis) (K562 cells [9]; K562, 10 µM): 38.02%; G1, % (K562 cells [9]; K562, 10 µM): 31.21%; G2/M, % (K562 cells [9]; K562, 10 µM): 51.08%; S, % (K562 cells [9]; K562, 10 µM): 17.71%; normal live cells (living cells) (K562 cells [10]; K562, 1 µM): 83.95%; normal live cells (living cells) (K562 cells [10]; K562, 5 µM): 65.68%; normal live cells (living cells) (K562 cells [10]; K562, 10 µM): 56.83%; ROS Level, % of Control (K562 cell line; K562, 5 µM): 92.84 % of Control; ROS Level, % of Control (K562 cell line; K562, 10 µM): 76.96 % of Control; ROS Level, % of Control (K562 cell line; K562, 20 µM): 71.90 % of Control |
| Cc1cn(-c2cc(NC(=O)c3cccc(C(=O)Nc4cccc(C(F)(F)F)c4)c3)cc(C(F)(F)F)c2)cn1 [Compound 5, N1-(3-(4-methyl-1H-imidazol-1-yl)-5-(trifluoromethyl)phenyl)-N3-(3-(trifluoromethyl)phenyl)isophthalamide] | 3.42 ± 0.78 | 7.04 ± 0.29 | 4.91 ± 1.27 | 8.84 | > 50 | 17.8 ± 2.13 | 2.86 ± 0.09 |  | 0 | 33 | 0 | 0 | 0 | 18 | 73 | 18 | 0 | 0 | 14.56 | 37.92 | IC50 [4]: 7.84 ± 2.61 µM; G2/M, % (K562 cells [9]; K562, 1 µM): 45.08%; S, % (K562 cells [9]; K562, 1 µM): 17.0% and 17.01%; Apoptosis, % (cell cycle analysis) (K562 cells [9]; K562, 5 µM): 37.20%; G1, % (K562 cells [9]; K562, 5 µM): 31.77%; G2/M, % (K562 cells [9]; K562, 5 µM): 50.09%; S, % (K562 cells [9]; K562, 5 µM): 18.14%; Apoptosis, % (cell cycle analysis) (K562 cells [9]; K562, 10 µM): 53.50%; G1, % (K562 cells [9]; K562, 10 µM): 29.86%; G2/M, % (K562 cells [9]; K562, 10 µM): 38.0% and 38.08%; S, % (K562 cells [9]; K562, 10 µM): 32.05%; normal live cells (living cells) (K562 cells [10]; K562, 1 µM): 79.72%; early apoptotic cells (K562 cells [10]; K562, 5 µM): 29.07%; late apoptotic cells (K562 cells [10]; K562, 5 µM): 19.93%; normal live cells (living cells) (K562 cells [10]; K562, 5 µM): 48.87%; necrotic cells (K562 cells [10]; K562, 10 µM): 16.38%; normal live cells (living cells) (K562 cells [10]; K562, 10 µM): 38.66%; ROS Level, % of Control (K562 cell line; K562, 5 µM): 76.76 % of Control; ROS Level, % of Control (K562 cell line; K562, 10 µM): 64.66 % of Control; ROS Level, % of Control (K562 cell line; K562, 20 µM, 20 µM): 62.9 % of Control |
